Measured values taken from PubChem BioAssay (NCI).
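Dose response: 5 concentrations. Exposure: 48 h. Format: 96-well plates. Endpoint: linear interpolation; highest concentration if not reached. Here, GI50 denotes the concentration required for 50% inhibition of growth. TGI: total growth inhibition.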

Columns and labels:
Assay in all cases: growth of human tumour cells (NCI), 48 h
[1] = test system: 786-0 renal
[2] = test system: NCI-H460 lung
[3] = test system: RPMI-8226 leukemia
[4] = test system: SNB-19 CNS
[5] = test system: SK-MEL-2 melanoma
[6] = test system: CCRF-CEM leukemia
[7] = test system: SNB-75 CNS
[8] = test system: MDA-MB-435
[9] = test system: NCI/ADR-RES ovarian
[10] = test system: MALME-3M melanoma

CC1CCC(C#N)(NOC2=NCCN2)CC1 (centres undefined)
GI50 [1]: 16.3 µM | TGI [1]: 37.1 µM | GI50 [2]: 37.7 µM | TGI [2]: > 100 µM | GI50 [3]: 40.4 µM | TGI [3]: > 100 µM | GI50 [4]: > 100 µM | TGI [4]: > 100 µM | GI50 [5]: > 100 µM | TGI [5]: > 100 µM | GI50 [6]: 56 µM | TGI [6]: > 100 µM | GI50 [7]: > 100 µM | TGI [7]: > 100 µM | GI50 [8]: 29.2 µM | TGI [8]: > 100 µM | GI50 [9]: > 100 µM | TGI [9]: > 100 µM

CCCCCC/C=C\CCCCCCCCCc1c(O)c(OC)cc(O)c1CN(C)C
TGI [1]: 3.26 µM | TGI [2]: 15.2 µM | TGI [3]: 7.62 µM | TGI [4]: 26.5 µM | TGI [5]: 40.1 µM | TGI [6]: 2.87 µM | TGI [7]: 13.8 µM | TGI [8]: 20 µM | TGI [9]: 37 µM

Cc1[nH]ccc2cc3nc4ccccc4c3cc12
GI50 [1]: 3.33 µM | TGI [1]: 13.8 µM | GI50 [2]: 1.39 µM | TGI [2]: 3.52 µM | GI50 [3]: 1.53 µM | TGI [3]: 3.87 µM | GI50 [4]: 5.65 µM | TGI [4]: 19.6 µM | GI50 [5]: 5.17 µM | TGI [5]: 16.5 µM | GI50 [6]: 1.5 µM | TGI [6]: 10 µM | GI50 [7]: 5.52 µM | TGI [7]: 18.9 µM | GI50 [8]: 2.89 µM | TGI [8]: 12.7 µM | GI50 [9]: 1.8 µM | TGI [9]: 11.9 µM | GI50 [10]: 2.27 µM | TGI [10]: 7.94 µM

COc1ccc2nc(C3=CN(C4OC(CO)C(O)C(O)C4O)C4C=CC=CC34)sc2c1 (centres undefined)
GI50 [1]: 15.6 µM | TGI [1]: 58.4 µM | GI50 [2]: > 100 µM | TGI [2]: > 100 µM | GI50 [3]: 40.3 µM | TGI [3]: > 100 µM | GI50 [4]: 46.8 µM | TGI [4]: > 100 µM | GI50 [5]: 38.8 µM | TGI [5]: > 100 µM | GI50 [6]: 42.4 µM | TGI [6]: > 100 µM | GI50 [7]: 55 µM | TGI [7]: > 100 µM | GI50 [8]: 37.1 µM | TGI [8]: > 100 µM | GI50 [9]: > 100 µM | TGI [9]: > 100 µM

CCCCCCCCCCC(CN(CC)CC)C(O)c1ccccc1 (centres undefined)
GI50 [1]: 1.67 µM | TGI [1]: 3.15 µM | GI50 [2]: 1.88 µM | TGI [2]: 3.5 µM | GI50 [3]: 2.05 µM | TGI [3]: 4.88 µM | GI50 [4]: 1.86 µM | TGI [4]: 3.77 µM | GI50 [5]: 2.31 µM | TGI [5]: 5.45 µM | GI50 [6]: 1.82 µM | TGI [6]: 4.89 µM | GI50 [7]: 1.33 µM | TGI [7]: 2.7 µM | GI50 [8]: 1.72 µM | TGI [8]: 3.23 µM | GI50 [9]: 1.9 µM | TGI [9]: 3.7 µM | GI50 [10]: 1.95 µM | TGI [10]: 3.85 µM

COc1ccc(Cn2cc3c(c2-c2ccccc2)CCc2cncnc2-3)cc1
GI50 [1]: 10.1 µM | TGI [1]: 38.5 µM | GI50 [2]: 3.48 µM | TGI [2]: 13.1 µM | GI50 [3]: 2.69 µM | TGI [3]: 8.62 µM | GI50 [4]: 10.2 µM | TGI [4]: 25 µM | GI50 [6]: 3.99 µM | TGI [6]: 18.3 µM | GI50 [7]: 3.98 µM | TGI [7]: 13.5 µM | GI50 [8]: 2.49 µM | TGI [8]: 11.8 µM | GI50 [9]: 3.99 µM | TGI [9]: 19.8 µM | GI50 [10]: 3.18 µM | TGI [10]: 12.8 µM

O=C(Nn1c2c(sc1=NC1CC1)C(=O)c1ccccc1C2=O)c1cc2ccc1CCc1ccc(cc1)CC2
GI50 [1]: 2.75 µM | TGI [1]: 7.93 µM | GI50 [2]: 3.35 µM | TGI [2]: 12.2 µM | GI50 [3]: 1.86 µM | TGI [3]: 6.47 µM | GI50 [4]: 3.09 µM | TGI [4]: 11.7 µM | GI50 [5]: 2.47 µM | TGI [5]: 7.25 µM | GI50 [6]: 2.53 µM | TGI [6]: > 100 µM | GI50 [7]: 1.32 µM | TGI [7]: 6.04 µM | GI50 [8]: 1.76 µM | TGI [8]: 3.23 µM | GI50 [9]: 1.93 µM | TGI [9]: 6.77 µM | GI50 [10]: 0.57 µM | TGI [10]: 1.75 µM

CCN1CCN(c2cc(C)nc(NCc3cc(Nc4ccnc5cc(Cl)ccc45)ccc3F)n2)CC1
GI50 [1]: 2.07 µM | TGI [1]: 5.88 µM | GI50 [2]: 2.83 µM | TGI [2]: 12.1 µM | GI50 [3]: 2.13 µM | TGI [3]: 8.72 µM | GI50 [4]: 3.71 µM | TGI [4]: > 100 µM | GI50 [5]: 2.53 µM | TGI [5]: 6.52 µM | GI50 [6]: 2.55 µM | TGI [6]: > 100 µM | GI50 [7]: 10.5 µM | TGI [7]: 30.8 µM | GI50 [8]: 2.22 µM | TGI [8]: 5.99 µM | GI50 [9]: 5.03 µM | TGI [9]: > 100 µM | GI50 [10]: 1.95 µM | TGI [10]: 3.91 µM

C=CC1=C(C)C(Cc2[nH]c(/C=c3\[nH]/c(=C/C4=NC(=O)C(C)/C4=C\C)c(C)c3CCC(=O)O)c(CCC(=O)OC)c2C)NC1=O (centres undefined)
GI50 [1]: 22 µM | TGI [1]: 62.5 µM | GI50 [2]: 21.7 µM | TGI [2]: > 100 µM | GI50 [3]: 23.9 µM | TGI [3]: 59.8 µM | GI50 [5]: 20.1 µM | TGI [5]: 39.4 µM | GI50 [6]: 31.2 µM | TGI [6]: > 100 µM | GI50 [8]: 23.9 µM | TGI [8]: 62 µM | GI50 [9]: 48.8 µM | TGI [9]: > 100 µM | GI50 [10]: 31.8 µM | TGI [10]: 69.8 µM

O=C(Nc1ccc([N+](=O)[O-])cc1)c1cc2ccccc2cc1O
GI50 [1]: 0.399 µM | TGI [1]: 1.91 µM | GI50 [2]: 0.365 µM | TGI [2]: 6.31 µM | GI50 [3]: 0.291 µM | TGI [3]: 0.727 µM | GI50 [4]: 0.405 µM | TGI [4]: 27.8 µM | GI50 [5]: 0.285 µM | TGI [5]: 0.722 µM | GI50 [6]: 0.754 µM | TGI [6]: > 100 µM | GI50 [7]: 0.538 µM | TGI [7]: 4.07 µM | GI50 [8]: 0.321 µM | TGI [8]: 1.64 µM | GI50 [9]: 0.314 µM | TGI [9]: 3.13 µM | GI50 [10]: 0.258 µM | TGI [10]: 1.11 µM
